Assay results from ChEMBL document CHEMBL1143406 (Antimicrob Agents Chemother, 2007).

Legend:
Format in all cases: ADME, organism-based
[1] = Half life in HIV-negative human at 600 mg, po administered every 24 hrs coadministered with 300 mg of atazanavir every 12 hrs; details: in vivo
[2] = AUC (24 hrs) in HIV-negative human at 600 mg, po administered every 24 hrs coadministered with 300 mg of atazanavir every 12 hrs; parameters: dose 600 mg, time < 24 hr, route oral; details: plasma
[3] = Half life in HIV-negative human at 600 mg, po administered every 24 hrs coadministered with 400 mg of atazanavir every 12 hrs; details: in vivo
Homo sapiens [4] = experiment: Terminal apparent distribution volume in HIV-negative human at 600 mg, po administered every 24 hrs coadministered with 400 mg of atazanavir every 12 hrs; details: in vivo
[5] = Cmax in HIV-negative human at 600 mg, po administered every 24 hrs coadministered with 400 mg of atazanavir every 12 hrs; parameters: dose 600 mg, route oral; details: in vivo
[6] = Apparent oral clearance in HIV-negative human at 600 mg, po administered every 24 hrs coadministered with 300 mg of atazanavir every 12 hrs; details: in vivo
Homo sapiens [7] = experiment: Terminal apparent distribution volume in HIV-negative human at 600 mg, po administered every 24 hrs coadministered with 300 mg of atazanavir every 12 hrs; details: in vivo
[8] = Tmax in HIV-negative human at 600 mg, po administered every 24 hrs coadministered with 300 mg of atazanavir every 12 hrs; details: in vivo
[9] = Tmax in HIV-negative human at 600 mg, po administered every 24 hrs coadministered with 400 mg of atazanavir every 12 hrs; details: in vivo
[10] = Cmax in HIV-negative human at 600 mg, po administered every 24 hrs coadministered with 300 mg of atazanavir every 12 hrs; parameters: dose 600 mg, route oral; details: in vivo
[11] = AUC (24 hrs) in HIV-negative human at 600 mg, po administered every 24 hrs coadministered with 400 mg of atazanavir every 12 hrs; parameters: time < 24 hr, dose 600 mg, route oral; details: plasma
[12] = Apparent oral clearance in HIV-negative human at 600 mg, po administered every 24 hrs coadministered with 400 mg of atazanavir every 12 hrs; details: in vivo

CO[C@H]1/C=C/O[C@@]2(C)Oc3c(C)c(O)c4c(O)c(c(/C=N/N5CCN(C)CC5)c(O)c4c3C2=O)NC(=O)/C(C)=C\C=C\[C@H](C)[C@H](O)[C@@H](C)[C@@H](O)[C@@H](C)[C@H](O)[C@@H]1C
half-life [1]: 1.6 h
AUC at 24 h [2]: 8300 ng·h/mL
half-life [3]: 1.5 h
Vbeta (Homo sapiens [4]): 159 L
Cmax [5]: 1710 ng/mL
CL/F [6]: 1490 mL/min
Vbeta (Homo sapiens [7]): 200 L
Tmax [8]: 3.2 h
Tmax [9]: 3.7 h
Cmax [10]: 1650 ng/mL
AUC at 24 h [11]: 9400 ng·h/mL
CL/F [12]: 1260 mL/min
